Values quoted from earlier work, collected in PubChem BioAssay AID1259409 (Chemical Carcinogenesis Research Information System (CCRIS), 2018).

Tested on: rodent chemically induced tumor inhibition, incidence and multiplicity
Assay: CCRIS tumor inhibitor studies

## NCCS
Carcinogen: N-METHYL-N'-NITRO-N-NITROSOGUANIDINE, 70-25-7, Dose [Inhibitor]: 0, 25 MG/KG IN 0.9% SALINE PLUS 2 MG/KG PROPANOLOL IN OLIVE OIL 1/2 D BEGINNING 1 WK POST LAST CARCINOGEN DOSE AND CONTI, Route [Inhibitor]: SUBCUTANEOUS, Species: RAT, Strain/Sex: WISTAR/MALE, Target Tissue: Type of Lesion: STOMACH: ADENOCARCINOMA, Dose [Carcinogen]: 100 UG/ML IN DRINKING WATER FOR 25 WK, Promoter: NONE USED
  tumour outcome (control, treated, inhibition, significance): 16/20 (80%), 2/22 (9%), 89%, p<0.001
Carcinogen: N-METHYL-N'-NITRO-N-NITROSOGUANIDINE, 70-25-7, Dose [Inhibitor]: 0, 25 MG/KG IN 0.9% SALINE PLUS 50 MG/KG CIMETIDINE IN OLIVE OIL 1/2 D BEGINNING 1 WK POST LAST CARCINOGEN DOSE AND CONT, Route [Inhibitor]: SUBCUTANEOUS, Species: RAT, Strain/Sex: WISTAR/MALE, Target Tissue: Type of Lesion: STOMACH: ADENOCARCINOMA, Dose [Carcinogen]: 100 UG/ML IN DRINKING WATER FOR 25 WK, Promoter: NONE USED
  tumour outcome (control, treated, inhibition, significance): 16/20 (80%), 12/21 (57%), 29%, not significant
Carcinogen: N-METHYL-N'-NITRO-N-NITROSOGUANIDINE, 70-25-7, Dose [Inhibitor]: 0, 25 MG/KG IN 1 ML/KG OLIVE OIL 1/2 D FOR STUDY DURATION BEGINNING POST CARCINOGEN TREATMENT (STUDY DURATION: 52 WK), Route [Inhibitor]: SUBCUTANEOUS, Species: RAT, Strain/Sex: WISTAR/MALE, Target Tissue: Type of Lesion: GLANDULAR STOMACH: ADENOCARCINOMA, Dose [Carcinogen]: 50 UG/ML DRINKING WATER FOR 25 WK
  tumour outcome (control, treated, inhibition, significance): 13/18 (72%), 6/20 (30%), 58%, p<0.05
Carcinogen: N-METHYL-N'-NITRO-N-NITROSOGUANIDINE, 70-25-7, Dose [Inhibitor]: 0, 50 MG/KG IN 0.9% SALINE 1/2 D BEGINNING POST CARCINOGEN DOSE AND CONTINUING FOR DURATION OF STUDY (STUDY DURATION: 52, Route [Inhibitor]: SUBCUTANEOUS, Species: RAT, Strain/Sex: WISTAR/MALE, Target Tissue: Type of Lesion: STOMACH: ADENOCARCINOMA, Dose [Carcinogen]: 50 UG/ML DRINKING WATER FOR 25 WK, Promoter: NONE USED
  tumour outcome (control, treated, inhibition, significance): 12/19 (63%), 5/20 (25%), 58%, p<0.05
Carcinogen: N-METHYL-N'-NITRO-N-NITROSOGUANIDINE, 70-25-7, Dose [Inhibitor]: 0, 280 MG/KG 1/2 D FOR STUDY DURATION (STUDY DURATION: 52 WK), Route [Inhibitor]: SUBCUTANEOUS, Species: RAT, Strain/Sex: WISTAR/MALE, Target Tissue: Type of Lesion: STOMACH: ADENOCARCINOMA, Dose [Carcinogen]: 50 UG/ML DRINKING WATER FOR 25 WK, Promoter: NONE USED
  tumour outcome (control, treated, inhibition, significance): 75%, 18%, 76%, p<0.01
Carcinogen: N-METHYL-N'-NITRO-N-NITROSOGUANIDINE, 70-25-7, Dose [Inhibitor]: 0.4% IN DIET FOR 26 WK GIVEN POST CARCINOGEN (STUDY DURATION: 52 WK), Route [Inhibitor]: ORAL, Species: RAT, Strain/Sex: WISTAR/MALE, Target Tissue: Type of Lesion: STOMACH: ADENOCARCINOMA, Dose [Carcinogen]: 50 UG/ML DRINKING WATER FOR 25 WK, Promoter: NONE USED
  tumour outcome (control, treated, inhibition, significance): 16/20 (80%), 9/20 (45%), 44%, p<0.05
Carcinogen: TRANS-5-AMINO-3-[2-(5-NITRO-2-FURYL)VINYL]-1,2,4-OXADIAZOLE;SQL8506, 28754-68-9, Carcinogen: TRANS-5-AMINO-3-[2-(5-NITRO-2-FURYL)VINYL]-1,2,4-OXADIAZOLE;SQL8506, 28754-68-9, Dose [Inhibitor]: 210 MG/KG 16 HR BEFORE THE 1ST CARCINOGEN DOSE FOLLOWED BY IP INJECTIONS (210 MG/KG) IMMEDIATELY BEFORE EACH DOSE OF CAR, Route [Inhibitor]: INTRAMUSCULAR/INTRAPERITONEAL, Species: MOUSE, Strain/Sex: CD-1/FEMALE, Target Tissue: Type of Lesion: HEMATOPOIETIC: MYELOID LEUKEMIA, Dose [Carcinogen]: 1 G/KG 2/D FOR 5 D EVERY 4 WK FOR 3 COURSES TREATMENT, Promoter: NONE USED
  tumour outcome (control, treated, inhibition, significance): 7/137 (5%), 0/28 (0%), 100%, not calculated
Carcinogen: TRANS-5-AMINO-3-[2-(5-NITRO-2-FURYL)VINYL]-1,2,4-OXADIAZOLE;SQL8506, 28754-68-9, Carcinogen: TRANS-5-AMINO-3-[2-(5-NITRO-2-FURYL)VINYL]-1,2,4-OXADIAZOLE;SQL8506, 28754-68-9, Dose [Inhibitor]: 210 MG/KG 16 HR BEFORE THE 1ST CARCINOGEN DOSE FOLLOWED BY IP INJECTIONS (210 MG/KG) IMMEDIATELY BEFORE EACH DOSE OF CAR, Route [Inhibitor]: INTRAMUSCULAR/INTRAPERITONEAL, Species: MOUSE, Strain/Sex: CD-1/FEMALE, Target Tissue: Type of Lesion: LYMPHOID TISSUE: NONTHYMIC LYMPHOMA, Dose [Carcinogen]: 1 G/KG 2/D FOR 5 D EVERY 4 WK FOR 3 COURSES OF TREATMENT, Promoter: NONE USED
  tumour outcome (control, treated, inhibition, significance): 8/137 (6%), 0/28 (0%), 100%, not calculated
Carcinogen: TRANS-5-AMINO-3-[2-(5-NITRO-2-FURYL)VINYL]-1,2,4-OXADIAZOLE;SQL8506, 28754-68-9, Carcinogen: TRANS-5-AMINO-3-[2-(5-NITRO-2-FURYL)VINYL]-1,2,4-OXADIAZOLE;SQL8506, 28754-68-9, Dose [Inhibitor]: 210 MG/KG 16 HR BEFORE THE 1ST CARCINOGEN DOSE FOLLOWED BY IP INJECTIONS (210 MG/KG) IMMEDIATELY BEFORE EACH DOSE OF CAR, Route [Inhibitor]: INTRAMUSCULAR/INTRAPERITONEAL, Species: MOUSE, Strain/Sex: CD-1/FEMALE, Target Tissue: Type of Lesion: LYMPHOID TISSUE: THYMIC LYMPHOMA, Dose [Carcinogen]: 1 G/KG 2/D FOR 5 D EVERY 4 WK FOR 3 COURSES OF TREATMENT, Promoter: NONE USED
  tumour outcome (control, treated, inhibition, significance): 22/137 (16%), 1/28 (4%), 75%, not calculated
Carcinogen: TRANS-5-AMINO-3-[2-(5-NITRO-2-FURYL)VINYL]-1,2,4-OXADIAZOLE;SQL8506, 28754-68-9, Carcinogen: TRANS-5-AMINO-3-[2-(5-NITRO-2-FURYL)VINYL]-1,2,4-OXADIAZOLE;SQL8506, 28754-68-9, Dose [Inhibitor]: 210 MG/KG 16 HR BEFORE THE 1ST CARCINOGEN DOSE FOLLOWED BY IP INJECTIONS (210 MG/KG) IMMEDIATELY BEFORE EACH DOSE OF CAR, Route [Inhibitor]: INTRAMUSCULAR/INTRAPERITONEAL, Species: MOUSE, Strain/Sex: CD-1/FEMALE, Target Tissue: Type of Lesion: STOMACH: SQUAMOUS CARCINOMA, Dose [Carcinogen]: 1 G/KG 2/D FOR 5 D EVERY 4 WK FOR 3 COURSES OF TREATMENT, Promoter: NONE USED
  tumour outcome (control, treated, inhibition, significance): 60/137 (44%), 13/28 (46%), -4%, not calculated
